Data published in US8835617B2, “Polynucleotides encoding a human TRIM-Cyp fusion polypeptide, compositions thereof, and methods of using same” (priority 2008, dated 2014).
Values joined by “and” are separate entries in the source; they are usually repeats but may differ in a detail not shown here. Identical values can stand only once. Like-named read-outs stand apart in the source and are kept apart here.

Assays:
HIV-1NL4-3 = assay: hCD4+-Rag2-/-γc-/- mice infected with HIV-1 four to five days after adoptive transfer; format: in vivo
Excerpt: Age-matched, 6-10 week-old Rag2^−/−γc^−/− mice were conditioned with clodronate and sublethal irradiation (van Rijn et al., 2003), and injected intraperitoneally with 2.5×10^6 transduced CD4^+ T cells (FIG. 68A,B).
Rag2^−/−γc^−/− mice on a BALB/c background (provided by M. Ito; Central Institute for Experimental Animals, Kawasaki, Japan) were bred and maintained under specific pathogen-free conditions in accordance with the guidelines of the animal facility at the Institute for Research in Biomedicine. CL2 MBP (clodronate) was from Roche Diagnostics (Mannheim, Germany). Preparation of liposomes containing CL2 MBP was done as described previously (Van Rooijen and Sanders, 1994). 6-10 week-old mice received 100 ul of clodronate liposomes intraperitoneally (i.p.) 24 hours prior to irradiation using a single sublethal dose of 4.0 Gray (Gy) from a Cesium 137 source (Biobeam 8000, STS GmbH, Braunschweig, Germany) at 3.75 Gy/min. […] CD4^+ T cell engraftment and maintenance in mice was measured by flow cytometry. To obtain peripheral blood cells and plasma, mice were bled from the retro-orbital venous sinus under anesthesia and red blood cells were lysed. When sacrificed, single cell suspensions from organs were prepared. For FACS analysis monoclonal antibodies against the following antigens were used: CD3 (UCHT1), CD4 (13B8.2), CD8 (B9.11), p24 (clone KC57) (all Immunotech/Beckman Coulter, Marseille, France), CD45 (HI30) (Caltag, Burlingame, Calif.). Intracellular staining for p24 was performed on single cell suspensions from mesenteric lymph nodes and thymus following staining with anti-CD3 antibody. Cells were washed, permeabilized, and fixed by treatment with BD Cytofix/Cytoperm (BD Pharmingen) and stained with anti-p24 antibody in BD Permwash solution (BD Pharmingen) following the manufacturer's instructions. Plasma HIV RNA concentrations were determined by Cobas Amplicor RT-PCR assay (Roche Diagnostics, Basel, Switzerland). Immunohistochemical stainings were performed as previously described (Baenziger et al., 2006). To assess nonspecific binding, tissue from untransplanted and uninfected transplanted mice was stained as controls.
Rag2^−/−γc^−/− mice on a BALB/c background (provided by M. Ito; Central Institute for Experimental Animals, Kawasaki, Japan) were bred and maintained under specific pathogen-free conditions in accordance with the guidelines of the animal facility at the Institute for Research in Biomedicine (Bellinzona) and the Swiss Federal Veterinary Office (Bern). Mouse experiments were reviewed and approved by the Veterinary Commission of the State of Ticino (Bellinzona, Switzerland). CL2 MBP (clodronate) was from Roche Diagnostics (Mannheim, Germany). Preparation of liposomes containing CL2 MBP was done as described previously (68). 6-10 week-old mice received 100 ul of clodronate liposomes intraperitoneally (i.p.) 24 hours prior to irradiation using a single sublethal dose of 4.0 Gray (Gy) from a Cesium 137 source (Biobeam 8000, STS GmbH, Braunschweig, Germany) at 3.75 Gy/min.

HIV-1 = system: HIV-1
Excerpt: CD4^+ T cells were enriched from PBMCs using MACS, and activated using irradiated allo-PBMC and IL-2. […] Cells were sorted based on GFP-expression and then challenged with replication-competent, CXCR4-tropic, HIV-1NL4-3. […] Cells were infected with HIV-1NL4-3, modified to be CCR5-tropic.
293T human embryonic kidney cells and CRFK feline kidney cells were maintained in DMEM supplemented with 10% fetal bovine serum (FBS) and glutamax (Invitrogen). […] CD4^+ T cells were enriched from PBMCs (>99% CD4^+) using positive selection magnetic beads (Miltenyi Biotec) and stimulated for 24 hrs on multisorb 96-well plates (Nunc) coated with 2 μg/ml anti-CD3 and 2 μg/ml anti-CD28 antibodies (BD Biosciences) in RPMI with 10% FBS, glutamax (Invitrogen) and 20 IU/ml hIL-2. When indicated and in preparation for adoptive transfer to mice, CD4^+ T cells were stimulated using allogeneic-PBMCs irradiated at 50 Gy in the presence of 20 IU/ml IL-2 and phytohemagglutinin (PHA) at 1 μg/ml. Cells were washed and replated 24 hrs prior to viral transduction. […]
2×10^4 adherent cells/well or 8×10^4 suspension cells/well were plated in 48-well plates (Nunc) for challenge with single-cycle GFP reporter vectors that were titered as indicated. GFP synthesis was assessed by flow cytometry 48 hrs post-infection. […] For infection of 10^6 primary CD4^+ T cells or macrophages, 15 ng p24/10^6 cells of a CXCR4- or CCR5-tropic HIV-1NL4-3 stock was used, and infection was monitored by assessing the accumulation of RT activity in the supernatant (Sayah et al., 2004). FACSCalibur, Cellquest Pro (Becton Dickinson), and FlowJo software (Treestar, Inc.) were used to record and analyze fluorescence. […]
CD4^+ T cells and monocyte-derived macrophages were infected with low passage derivatives of primary isolates HIV-1DH12 and HIV-1132W, respectively. […] Infection was monitored by assessing the accumulation of RT activity in the supernatant at the indicated day post-infection, at which point CD4^+ cells were split and macrophages were fed as required.

## hT5Cyp: human TRIM5α fused at serine 322 to human cyclophilin A, SEQ ID NO:12
HIV-1NL4-3; Example 4, n=5 and n=4
  reduction in mean viral load vs hT5CypH126Q: 22 fold
HIV-1NL4-3; four weeks post-infection
  mean peripheral blood CD45^+ cells: 6.7%
  percentage CD45^+ cells higher than hT5CypH126Q: 15 fold
HIV-1NL4-3; individual mice, week 2, listed as wt
  Viral load: 103208 copies RNA/ml and 46007 copies RNA/ml and 43551 copies RNA/ml and 251320 copies RNA/ml and 66416 copies RNA/ml and 358800 copies RNA/ml and 566835 copies RNA/ml and 3811676 copies RNA/ml and 492800 copies RNA/ml and 27826 copies RNA/ml
HIV-1NL4-3; individual mice, listed as wt
  Peripheral Blood (2 wks. postinfection) CD4: 1 percentage of total nucleated cells and 0.44 percentage of total nucleated cells and 0.33 percentage of total nucleated cells and 1.56 percentage of total nucleated cells and 2.7 percentage of total nucleated cells and 7.7 percentage of total nucleated cells and 15.1 percentage of total nucleated cells and 28.3 percentage of total nucleated cells and 1.89 percentage of total nucleated cells and 1.1 percentage of total nucleated cells
  Peripheral Blood (2 wks. postinfection) CD45: 1.08 percentage of nucleated cells and 0.47 percentage of nucleated cells and 0.24 percentage of nucleated cells and 1.64 percentage of nucleated cells and 2.75 percentage of nucleated cells and 7.86 percentage of nucleated cells and 15.6 percentage of nucleated cells and 28.9 percentage of nucleated cells and 2.12 percentage of nucleated cells and 1.16 percentage of nucleated cells
  Viral load (Corrected for CD4 count): 101231 and 104916 and 192227 and 159325 and 24321 and 47206 and 37382 and 134446 and 260305 and 25410
HIV-1NL4-3; two weeks post-infection
  mean peripheral blood CD4^+ cells: 6%
  percentage CD4^+ cells higher than hT5CypH126Q: 34 fold
HIV-1; CCR5-tropic HIV-1NL4-3
  establishment of infection: infection is not established
HIV-1; CXCR4-tropic HIV-1NL4-3
  establishment of infection: infection was not established
HIV-1; primary isolate HIV-1DH12
  block to infection: The same hT5Cyp-mediated block to infection
